From patent US20250051327A1, “MALT-1 MODULATORS” (EXSCIENTIA AI LIMITED, priority 2020, published 2025)

Tested on: IL-2 secretion by human effector memory T cells (TEM)
Experiment: Effector memory T cells IL-2 release assay
Format: cell-based
Conditions: T-cell; human CD4+ effector memory T cells, CD3/CD28 bead stimulation, 24 h; read-out: CD4TC IL2 IC50
Procedure: Effector Memory T Cells IL-2 Release Assay
Test compound-mediated inhibition of NFκB signalling in T cells was assessed by quantification of the IL-2 secretion by human effector memory T cells (TEM) upon treatment and stimulation. Human TEM cells were isolated from buffy coats of healthy donors obtained from the French blood bank. First, peripheral blood mononuclear cells (PBMC) were purified from buffy coats diluted 1:1 with DPBS (Gibco, cat #14190-094) by Pancoll (PAN BIOTECH, cat #P04-60500) density gradient centrifugation at 400×g for 20 minutes. TEM cells were further enriched by negative immuno-magnetic cell sorting using a human CD4+ Effector Memory T Cell Isolation Kit (Miltenyi, cat #130-094-125) according to the manufacturer's instructions. Aliquots of 3×10E6 purified TEM cells were kept frozen in Cryo-SFM medium (PromoCell, cat #C-29912) in gas phase nitrogen until used. Cell purity was verified by flow cytometry analysis of 200 000 PFA-fixed cells previously labelled with monoclonal antibodies anti-CD4-PerCP-Cy5.5 (BD Pharmigen, cat #332772), anti-CD8-V500 (BD Biosciences, cat #561617), anti-CD14-Pacific Blue (Biolegend, cat #325616), anti-CD45 RA-FITC (Biolegend, cat #304106) and anti-CCR7-APC (in CD4+ Effector Memory T Cell Isolation Kit, Miltenyi, cat #130-094-125).
TEM cells were resuspended in complete RPMI medium composed of: RPMI 1640 (Gibco, cat #31870-025), 10% heat inactivated fetal bovine serum (Sigma, cat #F7524), 2 mM GlutaMAX (Gibco, cat #35050-038), 1 mM sodium pyruvate 100× (Gibco, cat #11360-039), 1% MEM non-essential amino acids solution (Gibco, cat #11140-035) and 100 U/mL penicillin, 100 μg/mL streptomycin (Sigma-Aldrich, cat #11074440001). 5,000 cells per well were plated onto flat clear bottom 384 well plates (Corning, cat #3770). 5,000 Dynabeads Human T-Activator CD3/CD28 (Gibco, cat #11132D) were added to each well for cell stimulation. Finally, 10 doses of test compound, originally prepared in DMSO by serial semi-log step dilution, were also added to cells in triplicate wells. Final DMSO concentration in wells was 0.1% in a total volume of 100 μL complete medium. Plates were incubated for 24 h at 37° C. in 5% CO2 atmosphere. After incubation, cell suspensions were centrifuged at 400×g and culture supernatants were recovered and stored at −80° C. Cell viability was assessed by flow cytometry after staining the cells with Fixable Viability Dye eFluor 780 (Invitrogen, cat #65-0865-14). IL-2 levels were determined in cell supernatants using an HTRF human IL-2 detection kit (Cisbio, cat #62HIL02PEH). IL-2 data at the different compound doses were fitted to a 4-parameter logistic curve to determine IC50 values, corresponding to the compound concentration leading to 50% reduction of the maximal IL-2 levels observed in each experiment. Viability data were analysed similarly to exclude cytotoxicity as a cause of IL-2 decrease (see Table 1).

Compound	IC50
CN(C(=O)[C@@H]1CS(=O)(=O)CC12COC2)[C@@H](c1ccc(N2CCCc3c2cnc2cc(Cl)nn32)cc1)C(F)(F)F [CPD0073974, (8rel-R)-N-[(1S)-1-(4-{4-chloro-2,3,7,10-tetraazatricyclo[7.4.0.0^2,6]trideca-1(9),3,5,7-tetraen-10-yl}phenyl)-2,2,2-trifluoroethyl]-N-methyl-6,6-dioxo-2-oxa-6λ^6-thiaspiro[3.4]octane-8-carboxamide]	340 nM
CN(C(=O)[C@H]1CC[S@](=N)(=O)CC1)[C@@H](c1ccc(N2CC(C)(C)Cc3c2cnc2cc(Cl)nn32)cc1)C(F)(F)F [CPD0073497, (1rel r,4rel r)-N-[(1S)-1-(4-{4-chloro-12,12-dimethyl-2,3,7,10-tetraazatricyclo[7.4.0.0^2,6]trideca-1(9),3,5,7-tetraen-10-yl}phenyl)-2,2,2-trifluoroethyl]-1-imino-N-methyl-1-oxo-1λ^6-thiane-4-carboxamide]	183 nM
O=C(CC1CS(=O)(=O)C1)N[C@@H](c1ccc(N2CCCc3c2cnc2cc(Cl)nn32)cc1)C(F)(F)F [CPD0073535]	2070 nM
COc1ccc2ncc(Nc3ccc([C@H](N(C)C(=O)[C@H]4CC[S@+]([O-])CC4)C(F)(F)F)cc3)c([C@H](C)OC)c2n1 (relative stereo) [CPD0072936, (1rel-r,4rel-r)-N-methyl-1-oxo-N-[(1S)-2,2,2-trifluoro-1-[4-({6-methoxy-4-[(1 rel-S)-1-methoxyethyl]-1,5-naphthyridin-3-yl}amino)phenyl]ethyl]-1λ^4-thiane-4-carboxamide]	17 nM
COc1ccc2ncc(Nc3ccc([C@H](N(C)C(=O)C4CCS(=O)(=O)CC4)C(F)(F)F)cc3)c(C3(OC)COC3)c2n1 [CPD0076414, N-methyl-1,1-dioxo-N-[(1S)-2,2,2-trifluoro-1-[4-[6-methoxy-4-(3-methoxyoxetan-3-yl)-1,5-naphthyridin-3-yllamino]phenyl]ethyl]thiane-4-carboxamide]	267 nM
COc1ccc2ncc(Nc3ccc([C@H](N(C)C(=O)[C@H]4CC[S@@+]([O-])CC4)C(F)(F)F)cc3)c([C@H](C)OC)c2n1 (relative stereo) [CPD0072935, (1rel-s,4rel-s)-N-methyl-1-oxo-N-[(1S)-2,2,2-trifluoro-1-[4-({6-methoxy-4-[(1 rel-S)-1-methoxyethyl]-1,5-naphthyridin-3-yl}amino)phenyl]ethyl]-1λ^4-thiane-4-carboxamide]	34 nM
CN(C(=O)[C@H]1CS(=O)(=O)CC12COC2)[C@@H](c1ccc(N2CCCc3c2cnc2cc(Cl)nn32)cc1)C(F)(F)F [CPD0073975, (8rel-S)-N-[(1S)-1-(4-{4-chloro-2,3,7,10-tetraazatricyclo[7.4.0.0^2,6]trideca-1(9),3,5,7-tetraen-10-yl}phenyl)-2,2,2-trifluoroethyl]-N-methyl-6,6-dioxo-2-oxa-6λ^6-thiaspiro[3.4]octane-8-carboxamide]	341 nM

Continued by falling IC50, values first:

IC50	Compound
452 nM	CN(C(=O)C1CCS(=O)(=O)CC1)[C@@H](c1ccc(N2CCCc3c2cnc2cc(Cl)nn32)nc1)C(F)(F)F [CPD0019212, N-[(1S)-1-(6-{4-chloro-2,3,7,10-tetraazatricyclo[7.4.0.0^2,6]trideca-1(9),3,5,7-tetraen-10-yl}pyridin-3-yl)-2,2,2-trifluoroethyl]-N-methyl-1,1-dioxo-1λ^6-thiane-4-carboxamide]
209 nM	COC[C@@H]1CCN(c2ccc([C@H](N(C)C(=O)C3CCS(=O)(=O)CC3)C(F)(F)F)cc2)c2cnc3cc(Cl)nn3c21 [CPD0073503, N-[(1S)-1-[4-[(13rel-R)-4-chloro-13-(methoxymethyl)-2,3,7,10-tetrazatricyclo[7.4.0.0^2,6]trideca-1(9),3,5,7-tetraen-10-yl]phenyl]-2,2,2-trifluoro-ethyl]-N-methyl-1,1-dioxo-16-thiane-4-carboxamide]
170 nM	C[C@H]1CCN(c2ccc([C@H](N(C)C(=O)[C@H]3CC[S@@](=N)(=O)CC3)C(F)(F)F)cc2)c2cnc3cc(F)nn3c21 (relative stereo) [CPD0074554, (1rel r, 4rel r)1-imino-N-methyl-1-oxo-N-[(1S)-2,2,2-trifluoro-1-[4-[(13 rel S)-4-fluoro-13-methyl-2,3,7,10-tetrazatricyclo[7.4.0.0^2,6]trideca-1(9),3,5,7-tetraen-10-yl]phenyl]ethyl]thiane-4-carboxamide]
148 nM	CN(C(=O)[C@H]1CCN(C(=O)CC#N)C1)[C@@H](c1ccc(N2CCCc3c2cnc2cc(Cl)nn32)cc1)C(F)(F)F [CPD0073191, (3rel-S)-N-[(1S)-1-[4-(4-chloro-2,3,7,10-tetrazatricyclo[7.4.0.0^2,6]trideca-1(9),3,5,7-tetraen-10-yl)phenyl]-2,2,2-trifluoro-ethyl]-1-(2-cyanoacetyl)-N-methyl-pyrrolidine-3-carboxamide]
110 nM	COc1ccc2ncc(Nc3ccc([C@H](N(C)C(=O)C4CCS(=O)(=O)CC4)C(F)(F)F)cc3)c([C@@H](C)OC)c2n1 (relative stereo) [CPD0019171, N-methyl-1,1-dioxo-N-[(1S)-2,2,2-trifluoro-1-[4-({6-methoxy-4-[(1 rel R)-1-methoxyethyl]-1,5-naphthyridin-3-yl}amino)phenyl]ethyl]-1λ^6-thiane-4-carboxamide]
104 nM	CN(C(=O)C1CCS(=O)(=O)CC1)[C@@H](c1ccc(N2CC[C@@]3(CCOC3)c3c2cnc2cc(Cl)nn32)cc1)C(F)(F)F [CPD0073762, N-[(1S)-1-[4-[(13rel-R)-4-chlorospiro[2,3,7,10-tetrazatricyclo[7.4.0.0^2,6]trideca-1(9),3,5,7-tetraene-13,3′-tetrahydrofuran]-10-yl]phenyl]-2,2,2-trifluoro-ethyl]-N-methyl-1,1-dioxo-1λ^6-thiane-4-carboxamide]
88 nM	COC[C@H]1CCN(c2ccc([C@H](N(C)C(=O)C3CCS(=O)(=O)CC3)C(F)(F)F)cc2)c2cnc3cc(Cl)nn3c21 [CPD0073504, N-[(1S)-1-[4-[(13rel-S)-4-chloro-13-(methoxymethyl)-2,3,7,10-tetrazatricyclo[7.4.0.0^2,6]trideca-1(9),3,5,7-tetraen-10-yl]phenyl]-2,2,2-trifluoro-ethyl]-N-methyl-1,1-dioxo-1λ^6-thiane-4-carboxamide]
80 nM	COc1ccc2ncc(Nc3ccc([C@H](N(C)C(=O)C4CCS(=O)(=O)CC4)C(F)(F)F)cc3)c([C@H]3CCCO3)c2n1 (relative stereo) [CPD0074043, N-methyl-1,1-dioxo-N-[(1S)-2,2,2-trifluoro-1-[4-[6-methoxy-4-[(2 rel-R)-tetrahydrofuran-2-yl]-1,5-naphthyridin-3-yl]amino]phenyl]ethyl]thiane-4-carboxamide]
27 nM	COc1ccc2ncc(Nc3ccc([C@H](N(C)C(=O)C4CCN(C(C)=O)CC4)C(F)(F)F)cc3)c([C@H](C)OC)c2n1 (relative stereo) [CPD0074559, 1-acetyl-N-methyl-N-[(1S)-2,2,2-trifluoro-1-[4-[6-methoxy-4-[(1 rel S)-1-methoxyethyl]-1,5-naphthyridin-3-yl]amino]phenyl]ethyl]piperidine-4-carboxamide]
